Reference: paper PMC3873281, “Discovery and Preclinical Characterization of Novel Small Molecule TRK and ROS1 Tyrosine Kinase Inhibitors for the Treatment of Cancer and Inflammation” (PLoS ONE, 2013)
Where two headings read alike, the source gives them in different places.

Legend:
[1] = test system: croton oil-induced dermatitis; test: Croton oil-induced atopic dermatitis; conditions: s.c., twice, 16 hrs and 2 hrs before croton oil
MMP-3 = test: PMA- or NGF-induced MMP-3 expression in PC12 cells, realtime PCR; type: cell-based
Method: RNA was isolated using the Cells-to-Ct kit and realtime PCR was performed using TaqMan primers and probes on the ABI 7900 (Life Technologies). cDNA array experiments were conducted using TaqMan primers and probes on the ABI 7900 PCR machine.
Figure 3 GTx-186 inhibits inflammation in vitro. Cells were serum starved for 2 days, pre-treated with indicated concentrations of GTx-186 for 30 min and treated with growth factors or cytokines for 12–16 hrs. RNA was extracted, cDNA synthesized, and expression of inflammatory genes were measured by realtime PCR using Taqman primer and probes. All experiments were performed in triplicate and repeated at least three times.

[2] = test system: NIH3T3:FIG-ROS1 (S) cells; test: NIH3T3:FIG-ROS1 (S) cell proliferation, SRB assay; type: cell-based
Method: (§1) Adherent cells were plated at 10,000 cells per well in 96-well plates in respective medium. […] For cell cycle analysis, cells were plated in 6 well plates and treated for the indicated time points. Cells were fixed, stained with propidium iodide, and distribution in different phases of cell cycle was evaluated using flow cytometry.
(§2) Protein was extracted and immunoblotted with phospho-ROS1 and total ROS1 antibodies. C. […] Ba/F3 cells stably transfected with vector or FIG-ROS1 were plated in equal numbers and growth of the cells after 3 days was measured by SRB assay (F).

HCC78 lung cancer cells = test: HCC78 lung carcinoma cell growth, SRB assay; type: cell-based; conditions: Homo sapiens, HCC78, 144 h, read-out: IC50, proliferation of HCC78 cells
Method: as §1, §2

[3] = test system: NIH3T3:FIG-ROS1 (S) xenograft
Method: Xenograft experiments were performed in nude mice as previously described. Briefly, a mixture of cells suspended in 0.0375 mL RPMI+10% FBS and 0.0625 mL Matrigel was injected s.c. into the hind left flank of each mouse.
Tumor volumes (A) and body weight (C) were measured biweekly. After sacrifice, tumor weights (B) were recorded and the amount of drug in serum and tumors were quantified using LC-MS/MS (D). *-significant at p<0.01; **-significant at p<0.001.

FIG-ROS1 = test: Phosphorylation of ROS1 fused to FIG in NIH3T3 cells, Western blotting; type: cell-based; conditions: 3 days
Method: as §2

HCC78 cells = test: Cell cycle analysis of HCC78 cells, flow cytometry; type: cell-based; conditions: 1 µM
Method: as §1, §2

[4] = test system: carrageenan-induced air-pouch inflammation; test: Carrageenan-induced air pouch inflammation model; type: in vivo, Sprague Dawley rats; conditions: GTx-186 40 mg/kg; indomethacin 30 mg/kg s.c.
Method: Cytokine arrays were obtained from Ray Biotech (Norcross, GA) and arrays were processed according to manufacturer’s instructions. Briefly, arrays were incubated overnight with equal volume of air pouch exudates, washed, and incubated with secondary antibodies before developing using enhanced chemiluminescence.
Air was injected in the flanks of Sprague Dawley rats four days (20 mL) and two days (10 mL) before injection of carrageenan (1 mL of 2% carrageenan) in the pouch. Six hours after carrageenan administration, animals were sacrificed, 5 mL saline was injected into the pouch, pouch exudates were collected and the number of leukocytes and macrophages infiltrated into the pouch were counted under a microscope.
Figure 5 GTx-186 inhibits carrageenan-induced air-pouch inflammation in rats. A–C. A pouch was created subcutaneously in one flank of rats (n = 3) by injecting 20 ml air four days before and 10 ml air two days before treatment. […] Six hours after carrageenan administration, the animals were sacrificed, 5 ml saline was injected into pouch to flush the pouch fluid and the number of leukocytes and macrophages infiltrated into the pouch were counted under a microscope. TNF-α was measured using an ELISA in the pouch exudates from the experiment in panel B. (C). D. Effect of GTx-186 on inflammatory cytokines in carrageenan-induced air-pouch inflammation was measured in the pouch exudates using a cytokine array. Key cytokines were quantified and expressed as bar graphs on the right. […] 186-GTx-186; Indom-Indomethacin; Dex-Dexamethasone; TNF-Tumor Necrosis Factor; IL-Interleukin; CINC-Cytokine-Induced Neutrophil-Chemoattractant protein.

[5] = daily, GTx-186 20 mg/kg/day i.v., crizotinib 75 mg/kg p.o.

C[C@@H]1C[C@H]2[C@@H]3CCC4=CC(=O)C=C[C@]4(C)[C@@]3(F)[C@@H](O)C[C@]2(C)[C@@]1(O)C(=O)CO [dexamethasone]
expression of inflammatory pathway genes, including NGF, in ear punches [1]: markedly inhibited | MMP-3 expression induced by PMA (MMP-3): inhibited

C[C@@H](Oc1cc(-c2cnn(C3CCNCC3)c2)cnc1N)c1c(Cl)ccc(F)c1Cl [crizotinib]
IC50 ([2]; 72 h, read-out: IC50, proliferation of NIH3T3:FIG-ROS1 (S), 3 days): 0.024 µM | IC50 ([2]; read-out: IC50, proliferation of NIH3T3:FIG-ROS1 (S), 3 days): 0.026 µM | IC50 (HCC78 lung cancer cells): 0.495 µM | tumor growth inhibition ([3]; crizotinib 75 mg/kg p.o. daily): 90% | tumor growth (tumor volume) [3, 5]: significantly reduced | tumor weight [3, 5]: significantly reduced | body weight, visible toxicity ([3]; mouse, in vivo): without affecting body weight | phosphorylation of ROS1 fused to FIG (FIG-ROS1): extremely effective in inhibiting | time of treatment at which cells were arrested in G0/G1 phase (HCC78 cells): 6 days

COc1ccc2c(c1)c(CC(=O)O)c(C)n2C(=O)c1ccc(Cl)cc1 [indomethacin]
TNF-α levels in pouch exudates after carrageenan (ELISA, cytokine array) [4]: effectively inhibited | carrageenan-induced CINC-1, CINC-2, IL-6, and LIX in pouch exudates (cytokine array) [4]: only GTx-186 inhibited | carrageenan-induced CINC-3, TIMP-1, PDGFa, MMP-8, and MCP-1 in pouch exudates (cytokine array) [4]: neither GTx-186 nor indomethacin inhibited | carrageenan-induced TNF-α, IL-1β, fractalkine, IL-13, and leptin in pouch exudates (cytokine array) [4]: inhibited
